Columns and labels:
[1] = Solubility of DEX in various solvents; type: physicochemical
[2] = Ex-vivo model: coated balloon inflated against bovine carotid artery in simulated flow loop, drug by HPLC; conditions: for tissue concentration average: bovine carotid artery ex vivo, n=5
Description: The coated balloons were inflated against tissue in an ex-vivo model. Briefly, the model included a bovine carotid artery mounted in a simulated flow loop comprising appropriately sized tubing. The system was maintained at 37° C. A standard hemostasis valve and 8 Fr introducer sheath are used to introduce the coated balloon into the tubing, the balloon is tracked through the sheath and tubing into the bovine carotid artery, and the balloon is deployed (inflated to approximately 1.1 B.A.R. and held for 60 s) against the bovine carotid artery tissue. The tissue and balloon are removed for analysis. […] Briefly, the amount of drug was measured by using HPLC of extracted solutions from testing specimens, such as utilizing a solvent to solubilize and remove all remaining drug from the balloon for analysis.

[3] = In vivo porcine model: coated balloon deployed in femoral arteries, drug concentration in tissue; conditions: for concentration at 1 day / concentration at 28 days: pig, femoral artery tissue, porcine femoral arteries, n=18, read-out: median concentration in the tissue; for concentration at 28 days: after 28 days; for vessels in which drug was detectable: porcine
Description: In vivo studies are also performed. […] After 1 day, the median sirolimus concentration in the tissue is about 0.62 μg/g, and after 28 days the median concentration is about 0.07 μg/g (n=18).

Row | DEX solubility ([1]; solvent Acetone) [mg\mL] | DEX solubility ([1]; solvent Acetonitrile) [mg\mL] | DEX solubility ([1]; solvent Ethanol) [mg\mL] | DEX solubility ([1]; solvent Methanol) [mg\mL] | DEX solubility ([1]; solvent THF) [mg\mL] | tissue concentration average [2] | concentration at 1 day ([3]; after 1 day) [ng/g] | concentration at 28 days [3] [ng/g] | vessels in which drug was detectable ([3]; after 1 day) | vessels in which drug was detectable ([3]; day 28) | drug transferred to the tissue ([2]; sirolimus/urea first layer, DEX/urea second layer, bovine carotid artery, 37° C., inflated 60 s) | SMILES
1 | 12 | 10 | 8 | 15 | 30 | about 22.6 μg DEX/g of tissue | ~0.525 | ~0.5 | four of six vessels | two of six vessels |  | C[C@@H]1C[C@H]2[C@@H]3CCC4=CC(=O)C=C[C@]4(C)[C@@]3(F)[C@@H](O)C[C@]2(C)[C@@]1(O)C(=O)CO [DEX, dexamethasone]
2 |  |  |  |  |  | about 25.9 μg sirolimus/g of tissue | ~620 | ~70 |  |  | About 1.7% | CO[C@H]1C[C@@H]2CC[C@@H](C)[C@@](O)(O2)C(=O)C(=O)N2CCCC[C@H]2C(=O)O[C@H]([C@H](C)C[C@@H]2CC[C@@H](O)[C@H](OC)C2)CC(=O)[C@H](C)/C=C(\C)[C@@H](O)[C@@H](OC)C(=O)[C@H](C)C[C@H](C)/C=C/C=C/C=C/1C [sirolimus]

From US11951269B2, “Drug-coated medical devices” (Medtronic Vascular, Inc., priority 2018, dated 2024)
